Earlier results as cited in patent US20130085131A1, “HETEROCYCLIC COMPOUNDS AND THEIR USES” (Amgen Inc., priority 2010, published 2013).

Columns and labels:
[1] = system: mouse model of rheumatoid arthritis
[2] = system: model of systemic lupus erythematosis; details: in vivo
p110δ = biological target: T1, p110δ (Homo sapiens, UniProt O00329)
T1 sequence (O00329 1-1044): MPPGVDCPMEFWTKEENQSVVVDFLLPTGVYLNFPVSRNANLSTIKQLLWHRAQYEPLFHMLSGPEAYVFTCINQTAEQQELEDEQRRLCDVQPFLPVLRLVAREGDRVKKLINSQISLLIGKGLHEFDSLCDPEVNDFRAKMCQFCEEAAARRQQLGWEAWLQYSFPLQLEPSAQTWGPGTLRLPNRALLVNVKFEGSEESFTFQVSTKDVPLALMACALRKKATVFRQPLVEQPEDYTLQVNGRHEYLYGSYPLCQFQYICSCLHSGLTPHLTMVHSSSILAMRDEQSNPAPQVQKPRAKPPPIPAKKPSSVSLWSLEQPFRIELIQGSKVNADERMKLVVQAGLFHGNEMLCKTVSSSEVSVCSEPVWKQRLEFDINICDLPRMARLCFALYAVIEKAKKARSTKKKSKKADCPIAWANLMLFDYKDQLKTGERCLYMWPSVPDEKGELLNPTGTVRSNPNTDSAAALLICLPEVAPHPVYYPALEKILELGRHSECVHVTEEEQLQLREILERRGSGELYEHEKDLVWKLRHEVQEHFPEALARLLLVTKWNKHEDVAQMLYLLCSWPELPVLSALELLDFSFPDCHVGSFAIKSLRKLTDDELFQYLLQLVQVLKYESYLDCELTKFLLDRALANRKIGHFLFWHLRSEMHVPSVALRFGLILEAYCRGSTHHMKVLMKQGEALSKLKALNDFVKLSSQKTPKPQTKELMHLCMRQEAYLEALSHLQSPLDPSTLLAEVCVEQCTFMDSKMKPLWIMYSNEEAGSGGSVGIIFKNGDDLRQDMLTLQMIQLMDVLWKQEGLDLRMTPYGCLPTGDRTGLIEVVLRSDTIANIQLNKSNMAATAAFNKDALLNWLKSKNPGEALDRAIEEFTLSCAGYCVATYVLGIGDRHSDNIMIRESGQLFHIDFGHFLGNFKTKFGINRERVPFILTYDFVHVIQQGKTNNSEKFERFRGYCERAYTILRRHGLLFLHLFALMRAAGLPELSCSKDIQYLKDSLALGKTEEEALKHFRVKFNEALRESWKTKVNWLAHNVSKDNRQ

[3] = system: murine model of allergic disease; details: absence of functional delta (IC 87114 and p110δ D910A mice)
murine model of asthma = details: ovalbumin-induced airway inflammation

| SMILES | efficacy in a mouse model of rheumatoid arthritis [1] | onset of disease in a model of systemic lupus erythematosis [2] | inhibition of p110δ (p110δ) | passive cutaneous anaphylaxis (PCA) [3] | activity against any protein kinases tested (protein kinases) | inflammation and disease in a murine model of asthma (murine model of asthma) |
| --- | --- | --- | --- | --- | --- | --- |
| O=C1NC(=O)/C(=C\c2ccc3nccnc3c2)S1 [AS 605240] | efficacious | delay onset of disease | – | – | – | – |
| Cc1ccccc1-n1c(Cn2cnc3c(N)ncnc32)nc2cccc(C)c2c1=O [IC87114] | – | – | high nanomolar range (triple digit) | significantly reduced | no activity | significantly ameliorate |
